Where two headings read alike, the source gives them in different places.
Assays:
HCT116 MTAP WT cells = assay: Proliferation inhibition of HCT116 cells in vitro (CellTiter Glo); type: cell-based; details: 6 days, 9 concentrations starting from 30 μM, read-out: Cell proliferation inhibition rate HCT116 MTAP WT IC50 (nm)
Procedure, shortened: (§1)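 HCT116 (MTAP WT) or CRISPR MTAP-knockout HCT116 cells (100 per well) were exposed for 6 days at 37 °C to 9-point, 3-fold dilutions starting at 30 μM (WT) or 3 μM (KO), with 0.4% DMSO final. Viability was read by CellTiter-Glo luminescence, and IC50 came from a four-parameter fit.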

[1] = test system: HCT116-MTAP-KO cells (HCT116 MTAP null); assay: Proliferation inhibition of HCT116 MTAP-KO cells in vitro (CellTiter Glo); type: cell-based; details: 6 days, 9 concentrations starting from 3 μM, read-out: Cell proliferation inhibition rate HCT116 MTAP null IC50 (nm)
Procedure, shortened: as §1

SMILES | IC50 (HCT116 MTAP WT cells; Homo sapiens, HCT-116, 144 h) | IC50 ([1]; HCT116-MTAP null, 144 h) | IC50 (HCT116 MTAP WT cells) | IC50 [1]
Cc1ncc2c(N)nc3cc(F)c(C(=O)N(Cc4ccc(C(F)(F)F)nn4)c4ccnn4C)cc3n12 [Example 223] | 1 to 10 µM | < 0.1 µM |  | 
Cc1ncc2c(N)nc3cc(F)c(C(=O)N(Cc4cnn(C5CCOCC5)c4)c4ccnn4C)cc3n12 [Example 227] | 1 to 10 µM | 0.1 to 1 µM |  | 
Cc1ncc2c(N)nc3cc(F)c(C(=O)N(Cc4ncc(C(F)(F)F)cc4F)c4ccnn4C)cc3n12 [Example 228] | 0.1 to 1 µM | < 0.1 µM |  | 
Cc1ncc2c(N)nc3cc(F)c(C(=O)N(Cc4ccc(S(F)(F)(F)(F)F)cc4)c4ccnn4C)cc3n12 [Example 229] | 0.1 to 1 µM | < 0.1 µM |  | 
Cc1ncc2c(N)nc3cc(F)c(C(=O)N(Cc4cnn(C5COC5)c4)c4ccnn4C)cc3n12 [Example 231] | 1 to 10 µM | 0.1 to 1 µM |  | 
Cc1ncc2c(N)nc3cc(F)c(C(=O)N(Cc4ccncn4)c4ccnn4C)cc3n12 [Example 232] | 1 to 10 µM | 0.1 to 1 µM |  | 
Cc1ncc2c(N)nc3cc(F)c(C(=O)N(Cc4cnn(-c5ccccn5)c4)c4ccnn4C)cc3n12 [Example 234] | 1 to 10 µM | < 0.1 µM |  | 
COC1CCC1N(Cc1cn2cc(C(F)(F)F)ccc2n1)C(=O)c1cc2c(cc1F)nc(N)c1cnc(C)n12 (stereo not drawn) [Example 240] | 1 to 10 µM | < 0.1 µM |  | 
Cc1ncc2c(N)nc3cc(F)c(C(=O)N(Cc4cn5ccccc5n4)C(C)C(F)(F)F)cc3n12 (stereo not drawn) [Example 243] | 1 to 10 µM | 0.1 to 1 µM |  | 
CCN(Cc1cn2cc(C(F)F)ccc2n1)C(=O)c1cc2c(cc1F)nc(N)c1c(C)ncn12 [Example 244] | 1 to 10 µM | < 0.1 µM |  | 
COc1ccc(C2COCC(C)N2C(=O)c2cc3c(cc2F)nc(N)c2cnc(C)n23)nn1 (stereo not drawn) [Example 271] | 1 to 10 µM | < 0.1 µM |  | 
Cc1ncc2c(N)nc3cc(F)c(C(=O)N4C(C)COCC4c4ccc(C(F)(F)F)cn4)cc3n12 (stereo not drawn) [Example 273] | 1 to 10 µM | < 0.1 µM |  | 
Cc1ncc2c(N)nc3cc(F)c(C(=O)N4C(C)COCC4c4ccc(C(F)(F)F)cc4)cc3n12 (stereo not drawn) [Example 275] | 1 to 10 µM | < 0.1 µM |  | 
COc1ccc(C2COCC(C)N2C(=O)c2cc3c(cc2F)nc(N)c2c(C)ncn23)nn1 (stereo not drawn) [Example 278] | 0.1 to 1 µM | 0.1 to 1 µM |  | 
Cc1ncn2c1c(N)nc1cc(F)c(C(=O)N3C(C)COCC3c3ccc(C(F)(F)F)cn3)cc12 (stereo not drawn) [Example 280] |  | < 0.1 µM | 0.1 to 1 µM | 
Cc1ncn2c1c(N)nc1cc(F)c(C(=O)N3C(C)COCC3c3ccc(C(F)(F)F)cc3)cc12 (stereo not drawn) [Example 282] | 1 to 10 µM | < 0.1 µM |  | 
CCN(Cc1cn2cc(C(F)(F)F)ccc2n1)C(=O)c1cc2c(cc1F)nc(N)c1c(C)ncn12 [Example 285] | 1 to 10 µM | < 0.1 µM |  | 

SMILES | IC50 (HCT116 MTAP WT cells; Homo sapiens, HCT-116, 144 h) | IC50 ([1]; HCT116-MTAP null, 144 h) | IC50 (HCT116 MTAP WT cells) | IC50 [1]
Cc1ncn2c1c(N)nc1ccc(C(=O)N(Cc3nc(-c4cccnn4)cs3)CC(C)C)cc12 [Example 294] | 1 to 10 µM | 0.1 to 1 µM |  | 
Cc1ncn2c1c(N)nc1ccc(C(=O)N(CC(C)C)C(C)c3nc(-c4ccccn4)cs3)cc12 (stereo not drawn) [Example 299] | 1 to 10 µM | < 0.1 µM |  | 
Cc1ncn2c1c(N)nc1ccc(C(=O)N(Cc3nc(N4CCOCC4)cs3)CC(C)C)cc12 [Example 301] | 1 to 10 µM | 0.1 to 1 µM |  | 
Cc1ncn2c1c(N)nc1ccc(C(=O)N(Cc3nc(C4=CCOCC4)cs3)CC(C)C)cc12 [Example 303] | 1 to 10 µM | < 0.1 µM |  | 
Cc1ncn2c1c(N)nc1ccc(C(=O)N(Cc3nc(-c4ncccn4)cs3)CC(C)C)cc12 [Example 305] | 1 to 10 µM | < 0.1 µM |  | 
Cc1ncn2c1c(N)nc1ccc(C(=O)N(Cc3nc(-c4ccccn4)cs3)CC(C)C)cc12 [Example 307] | 1 to 10 µM | < 0.1 µM |  | 
Cc1cccc(-c2ncc(CN(CC(C)C)C(=O)c3ccc4nc(N)c5c(C)ncn5c4c3)[nH]2)n1 [Example 308] | 1 to 10 µM | 0.1 to 1 µM |  | 
Cc1ncn2c1c(N)nc1ccc(C(=O)N(Cc3nc(C4CCOCC4)cs3)CC(C)C)cc12 [Example 310] | 1 to 10 µM | < 0.1 µM |  | 
Cc1cccc(-c2csc(CN(CC(C)C)C(=O)c3ccc4nc(N)c5c(C)ncn5c4c3)n2)n1 [Example 312] | 1 to 10 µM | < 0.1 µM |  | 
Cc1cnn2c1c(N)nc1ccc(C(=O)N(Cc3ccc(C(F)(F)F)cn3)C(C)c3ncccn3)cc12 (stereo not drawn) [Example 315] |  |  | < 0.1 µM | < 0.1 µM
Cc1ncc2c(N)nc3cc(F)c(C(=O)N(Cc4cnn(C5CC5)c4)c4ccnn4C)cc3n12 [Example 317] | 1 to 10 µM | < 0.1 µM |  | 
Cc1ncc2c(N)nc3cc(F)c(C(=O)N(Cc4cnc(C5CC5)n4C)c4ccnn4C)cc3n12 [Example 318] | 1 to 10 µM | 0.1 to 1 µM |  | 
Cc1ncc2c(N)nc3cc(F)c(C(=O)N(Cc4cnn(CC(F)(F)F)c4)c4ccnn4C)cc3n12 [Example 319] | 1 to 10 µM | 0.1 to 1 µM |  | 
COCCN(C)c1ccc(CN(C(=O)c2cc3c(cc2F)nc(N)c2cnc(C)n23)c2ccnn2C)nc1 [Example 320] | 1 to 10 µM | 0.1 to 1 µM |  | 
Cc1ncc2c(N)nc3cc(F)c(C(=O)N(Cc4cccc(C(F)(F)F)n4)c4ccnn4C)cc3n12 [Example 326] | 1 to 10 µM | < 0.1 µM |  | 
Cn1ncc2c(N)nc3cc(F)c(C(=O)N4CCC5(CCN(c6ccc(C(F)(F)F)cc6)CC5)C4)cc3c21 [Example 414] | 1 to 10 µM | 0.1 to 1 µM |  | 
